# Active and inactive are the calls of the source. The rule behind the calls is not given here.
# Test system: CCRIS mutagenicity, Ames/micronucleus/aberration tests
# Assay: CCRIS mutagenicity studies
# [1] = Test System: AMES SALMONELLA TYPHIMURIUM, Strain/Indicator: TA98, Metabolic Activation: NONE, Method: STANDARD PLATE
# [2] = Test System: AMES SALMONELLA TYPHIMURIUM, Strain/Indicator: TA98, Metabolic Activation: RAT, LIVER, S-9, AROCLOR 1254, Method: STANDARD PLATE
# [3] = Test System: AMES SALMONELLA TYPHIMURIUM, Strain/Indicator: TA100, Metabolic Activation: NONE, Method: STANDARD PLATE
# [4] = Test System: AMES SALMONELLA TYPHIMURIUM, Strain/Indicator: TA100, Metabolic Activation: RAT, LIVER, S-9, AROCLOR 1254, Method: STANDARD PLATE
compound,measurement,setting,value
CN(C)CCN(Cc1cccs1)c1ccccn1,mutagenic call,"Test System: AMES SALMONELLA TYPHIMURIUM, Strain/Indicator: TA97, Metabolic Activation: RAT, LIVER, S-9, AROCLOR 1254, Method: STANDARD PLATE",inactive; negative
same,mutagenic call,"Test System: AMES SALMONELLA TYPHIMURIUM, Strain/Indicator: TA98, Metabolic Activation: HAMSTER LIVER S-9, AROCLOR 1254 (10%), Method: PREINCUBATION",inactive; negative
same,mutagenic call,"Test System: AMES SALMONELLA TYPHIMURIUM, Strain/Indicator: TA98, Metabolic Activation: NONE, Method: PREINCUBATION",inactive; negative
same,mutagenic call,[1],inactive; negative
same,mutagenic call,"Test System: AMES SALMONELLA TYPHIMURIUM, Strain/Indicator: TA98, Metabolic Activation: RAT LIVER S-9, AROCLOR 1254 (10%), Method: PREINCUBATION",inactive; negative
same,mutagenic call,"Test System: AMES SALMONELLA TYPHIMURIUM, Strain/Indicator: TA98, Metabolic Activation: RAT, LIVER, S-9, AROCLOR 1254, Method: PREINCUBATION",inactive; negative
same,mutagenic call,[2],inactive; negative
same,mutagenic call,"Test System: AMES SALMONELLA TYPHIMURIUM, Strain/Indicator: TA98, Metabolic Activation: RAT, LIVER, S-9, Method: STANDARD PLATE",inactive; negative
same,mutagenic call,"Test System: AMES SALMONELLA TYPHIMURIUM, Strain/Indicator: TA98, Method: STANDARD PLATE",inactive; negative
same,mutagenic call,"Test System: AMES SALMONELLA TYPHIMURIUM, Strain/Indicator: TA100, Metabolic Activation: HAMSTER LIVER S-9, AROCLOR 1254 (10%), Method: PREINCUBATION",inactive; negative
same,mutagenic call,"Test System: AMES SALMONELLA TYPHIMURIUM, Strain/Indicator: TA100, Metabolic Activation: NONE, Method: PREINCUBATION",inactive; negative
same,mutagenic call,[3],inactive; negative
same,mutagenic call,"Test System: AMES SALMONELLA TYPHIMURIUM, Strain/Indicator: TA100, Metabolic Activation: RAT LIVER S-9, AROCLOR 1254 (10%), Method: PREINCUBATION",inactive; negative
same,mutagenic call,[4],inactive; negative
same,mutagenic call,"Test System: AMES SALMONELLA TYPHIMURIUM, Strain/Indicator: TA100, Metabolic Activation: RAT, LIVER, S-9, Method: STANDARD PLATE",inactive; negative
same,mutagenic call,"Test System: AMES SALMONELLA TYPHIMURIUM, Strain/Indicator: TA100, Method: STANDARD PLATE",inactive; negative
same,mutagenic call,"Test System: AMES SALMONELLA TYPHIMURIUM, Strain/Indicator: TA104, Metabolic Activation: NONE, Method: STANDARD PLATE",inactive; negative
same,mutagenic call,"Test System: AMES SALMONELLA TYPHIMURIUM, Strain/Indicator: TA104, Metabolic Activation: RAT, LIVER, S-9, AROCLOR 1254, Method: STANDARD PLATE",inactive; negative
same,mutagenic call,"Test System: AMES SALMONELLA TYPHIMURIUM, Strain/Indicator: TA104, Metabolic Activation: RAT, LIVER, S-9, Method: STANDARD PLATE",inactive; negative
same,mutagenic call,"Test System: AMES SALMONELLA TYPHIMURIUM, Strain/Indicator: TA104, Method: STANDARD PLATE",inactive; negative
same,mutagenic call,"Test System: AMES SALMONELLA TYPHIMURIUM, Strain/Indicator: TA1535, Metabolic Activation: HAMSTER LIVER S-9, AROCLOR 1254 (10%), Method: PREINCUBATION",inactive; negative
same,mutagenic call,"Test System: AMES SALMONELLA TYPHIMURIUM, Strain/Indicator: TA1535, Metabolic Activation: NONE, Method: PREINCUBATION",inactive; negative
same,mutagenic call,"Test System: AMES SALMONELLA TYPHIMURIUM, Strain/Indicator: TA1535, Metabolic Activation: RAT LIVER S-9, AROCLOR 1254 (10%), Method: PREINCUBATION",inactive; negative
same,mutagenic call,"Test System: AMES SALMONELLA TYPHIMURIUM, Strain/Indicator: TA1535, Metabolic Activation: RAT, LIVER, S-9, AROCLOR 1254, Method: STANDARD PLATE",inactive; negative
same,mutagenic call,"Test System: AMES SALMONELLA TYPHIMURIUM, Strain/Indicator: TA1535, Metabolic Activation: RAT, LIVER, S-9, Method: STANDARD PLATE",inactive; negative
same,mutagenic call,"Test System: AMES SALMONELLA TYPHIMURIUM, Strain/Indicator: TA1535, Method: STANDARD PLATE",inactive; negative
same,mutagenic call,"Test System: AMES SALMONELLA TYPHIMURIUM, Strain/Indicator: TA1537, Metabolic Activation: HAMSTER LIVER S-9, AROCLOR 1254 (10%), Method: PREINCUBATION",inactive; negative
same,mutagenic call,"Test System: AMES SALMONELLA TYPHIMURIUM, Strain/Indicator: TA1537, Metabolic Activation: NONE, Method: PREINCUBATION",inactive; negative
same,mutagenic call,"Test System: AMES SALMONELLA TYPHIMURIUM, Strain/Indicator: TA1537, Metabolic Activation: NONE, Method: STANDARD PLATE",inactive; negative
same,mutagenic call,"Test System: AMES SALMONELLA TYPHIMURIUM, Strain/Indicator: TA1537, Metabolic Activation: RAT LIVER S-9, AROCLOR 1254 (10%), Method: PREINCUBATION",inactive; negative
same,mutagenic call,"Test System: AMES SALMONELLA TYPHIMURIUM, Strain/Indicator: TA1537, Metabolic Activation: RAT, LIVER, S-9, AROCLOR 1254, Method: STANDARD PLATE",inactive; negative
same,mutagenic call,"Test System: AMES SALMONELLA TYPHIMURIUM, Strain/Indicator: TA1537, Metabolic Activation: RAT, LIVER, S-9, Method: STANDARD PLATE",inactive; negative
same,mutagenic call,"Test System: AMES SALMONELLA TYPHIMURIUM, Strain/Indicator: TA1537, Method: STANDARD PLATE",inactive; negative
same,mutagenic call,"Test System: AMES SALMONELLA TYPHIMURIUM, Strain/Indicator: TA1538, Metabolic Activation: RAT, LIVER, S-9, AROCLOR 1254, Method: STANDARD PLATE",inactive; negative
same,mutagenic call,"Test System: AMES SALMONELLA TYPHIMURIUM, Strain/Indicator: TA2638, Metabolic Activation: NONE, Method: STANDARD PLATE",inactive; negative
same,mutagenic call,"Test System: AMES SALMONELLA TYPHIMURIUM, Strain/Indicator: TA2638, Metabolic Activation: RAT, LIVER, S-9, AROCLOR 1254, Method: STANDARD PLATE",inactive; negative
same,mutagenic call,"Test System: AMES SALMONELLA TYPHIMURIUM, Strain/Indicator: TA2638, Metabolic Activation: RAT, LIVER, S-9, Method: STANDARD PLATE",inactive; negative
same,mutagenic call,"Test System: AMES SALMONELLA TYPHIMURIUM, Strain/Indicator: TA2638, Method: STANDARD PLATE",inactive; negative
same,mutagenic call,"Test System: CHINESE HAMSTER OVARY, Strain/Indicator: CHO-K1-BH4 (HGPRT), Metabolic Activation: NONE, Method: SUSPENSION/PLATE",inactive; negative
same,mutagenic call,"Test System: CHINESE HAMSTER OVARY, Strain/Indicator: CHO-K1-BH4 (HGPRT), Metabolic Activation: RAT, LIVER, S-9, AROCLOR, Method: SUSPENSION/PLATE",inactive; negative
same,mutagenic call,"Test System: E. COLI, Strain/Indicator: WP2 UVRA, Metabolic Activation: NONE, Method: STANDARD PLATE",inactive; negative
same,mutagenic call,"Test System: E. COLI, Strain/Indicator: WP2 UVRA, Metabolic Activation: RAT, LIVER, S-9, AROCLOR 1254, Method: STANDARD PLATE",inactive; negative
same,mutagenic call,"Test System: E. COLI, Strain/Indicator: WP2 UVRA, Metabolic Activation: RAT, LIVER, S-9, Method: STANDARD PLATE",inactive; negative
same,mutagenic call,"Test System: E. COLI, Strain/Indicator: WP2 UVRA, Method: STANDARD PLATE",inactive; negative
same,mutagenic call,"Test System: MOUSE LYMPHOMA, Strain/Indicator: L5178Y (TK+/+)/TRIFLUOROTHYMIDINE, Metabolic Activation: RAT LIVER S-9, AROCLOR 1254, Method: SUSPENSION/PLATE",inactive; negative
same,mutagenic call,"Test System: MOUSE LYMPHOMA, Strain/Indicator: L5178Y (TK+/TK-), Metabolic Activation: NONE, Method: SUSPENSION/PLATE",inactive; negative
same,mutagenic call,"Test System: MOUSE LYMPHOMA, Strain/Indicator: L5178Y (TK+/TK-), Metabolic Activation: RAT, LIVER, S-9, AROCLOR 1242 AND 1254 (2:1), Method: SUSPENSION/PLATE",active; positive
same,mutagenic call,"Test System: MOUSE LYMPHOMA, Strain/Indicator: L5178Y (TK+/TK-), Metabolic Activation: RAT, LIVER, S-9, AROCLOR 1242 AND 1254 (2:1 MIXTURE), Method: SUSPENSION/PLATE",active; positive
same,mutagenic call,"Test System: MOUSE LYMPHOMA, Strain/Indicator: L5178Y (TK+/TK-), Metabolic Activation: RAT, LIVER, S-9, AROCLOR 1254, Method: SUSPENSION/PLATE",inactive; negative
same,mutagenic call,"Test System: UDS RAT HEPATOCYTES, Strain/Indicator: THY INCORP, Metabolic Activation: NONE, Method: AUTORADIOGRAPHY (SERUM-FREE MEDIA)",active; positive
CC(=O)N(O)c1ccccc1,mutagenic call,[1],inactive; negative
same,mutagenic call,[2],inactive; negative
same,mutagenic call,[3],inactive; negative
same,mutagenic call,[4],inactive; negative
CC1(C2CO2)CO1 (configuration not stated),mutagenic call,[1],active; positive
same,mutagenic call,[3],active; positive
Cc1c(N)nc(C(CC(N)=O)NCC(N)C(N)=O)nc1C(=O)NC(C(=O)NC(C)C(O)C(C)C(=O)NC(C(=O)NCCc1nc(-c2nc(C(=O)NCCCCN(CCCCN=C(N)N)C(=N)N)cs2)cs1)C(C)O)C(OC1OC(CO)C(O)C(O)C1OC1OC(CO)C(O)C(OC(N)=O)C1O)c1cnc[nH]1 (configuration not stated),mutagenic call,"Test System: AMES SALMONELLA TYPHIMURIUM, Strain/Indicator: TA102, Metabolic Activation: NONE, Method: PREINCUBATION",active; positive

# Source: PubChem BioAssay AID1259407 (Chemical Carcinogenesis Research Information System (CCRIS), 2018)
